Measurements reported in US12252457B2, “Compositions and methods for reducing tactile dysfunction, anxiety, and social impairment” (President and Fellows of Harvard College, priority 2018, dated 2025).

System: Mecp2^R306C and Shank3B^+/− mice
Experiment: Chronic isoguvacine treatment from P0-P42 of Mecp2 and Shank3 germline mutant mice
Type: in vivo, mouse
Procedure: FIGS. 21A-21O show chronic administration of isoguvacine improves tactile over-reactivity, region-selective cortical abnormalities, and some ASD-related behaviors in Mecp2 and Shank3 mutant mice. FIG. 21A: Representative images of P21 control and Mecp2^C/y mutant mice treated daily from P0-21 with either saline or isoguvacine (2 mg/kg). FIG. 21B: Average phenotypic score of P21 Shank3B^+/− or Mecp2^C/y mutant mice and control littermates treated daily with either saline or isoguvacine (2 mg/kg). One-way ANOVA with post-hoc Tukey's test, *, p<0.05. FIG. 21C: Average bodyweight of P21 Shank3B^+/− or Mecp2^C/y mutant mice and control littermates treated daily with either saline or isoguvacine (2 mg/kg). One-way ANOVA with post-hoc Tukey's test, *, p<0.05. […] One-way ANOVA with post-hoc Tukey's test, *, p<0.05. FIG. 21E: Discrimination index for textured NORT. One-way ANOVA with post-hoc Tukey's test, *, p<0.05. FIG. 21F: Representative activity traces in the OF test. FIG. 21G: Percent time spent in the center of the OF chamber. One-way ANOVA with post-hoc Tukey's test, *, p<0.05. FIG. 21H: Percent time spent in the open arms of the EPM. One-way ANOVA with post-hoc Tukey's test, *, p<0.05. FIGS. 21I-21J: Preference index for the percentage of time spent investigating the novel mouse in the “Sociability” (FIG. 21I) or “Social Novelty Recognition Preference” (FIG. 21J) portion of the 3-chamber social interaction test. One-way ANOVA with post-hoc Tukey's test, *, p<0.05. FIG. 21K: Representative IHC images of transverse S1 brain sections, showing PV immunoreactivity in Shank3B^+/− or Mecp2^C/y mutant mice and control littermates treated daily from P1-42 with either saline or isoguvacine (2 mg/kg). FIGS. 21L-21M: Quantification of the number of PV-positive (PV^+) neurons in S1 (FIG. 21L) and V1 (FIG. 21M). One-way ANOVA with post-hoc Tukey's test, *, p<0.05. FIG. 21N: Representative traces showing ePSCS (−70 my hold) and iPSCs (0 mV hold) from S1 slices from Shank3B^+/− or Mecp2^C/y mutant mice and control littermates treated daily from P1-42 with either saline or isoguvacine (2 mg/kg). FIG. 21O: Quantification of excitatory/inhibitory (E/I) ratio in S1 or V1 slices from control and mutant mice. One-way ANOVA with post-hoc Tukey's test, *, p<0.05.
Therefore, it was tested whether chronic treatment of Mecp2 and Shank3 germline mutant mice with isoguvacine beginning shortly after birth (i.p. administration, 2 mg/kg per daily, from P0-P42) improves any of the ASD-related phenotypes commonly observed in adulthood. […] Taken together, treatment with a peripherally restricted GABAA receptor agonist during early postnatal development may provide an effective therapeutic strategy for improving tactile over-reactivity and a subset of other key features of ASD, including anxiety, without causing sedation and other undesirable effects of activating brain GABAA receptors during development.

For O=C(O)C1=CCNCC1 [Isoguvacine, isoguvacine], the “tactile over-reactivity, anxiety-like behaviors, social impairments, PV+ neuron abnormalities in S1 and BLA, E/I ratios in S1” value (8-week-old mice, 2 mg/kg i.p. daily P0-P42) was “significantly improved multiple ASD-associated behavioral phenotypes”, the motor impairments (Mecp2 mutants, chronic 2 mg/kg) was “not improved” and the “overall body appearance, or phenotypic score” value (P21, 2 mg/kg i.p. daily, vs saline-treated) was “substantial improvement”. The “bodyweight of mutant mice” value (P21, Shank3B and Mecp2 mutant mice, 2 mg/kg daily) was “increased bodyweight and were not different in weight from control mice”, the overgrooming phenotype (Shank3 mutants, chronic 2 mg/kg) was “nor was the overgrooming phenotype rescued” and the “textured discrimination deficits, acoustic PPI performance, memory impairments, PV+ neuron abnormalities and E/I ratios in V1” value (Shank3 or Mecp2 mutants, 2 mg/kg i.p. daily P0-P42) was “did not improve”.
